The target of test [1] is BRD3 (His-Brd3(20-477)) (Homo sapiens (Human), UniProt Q15059). Put plainly: TR-FRET in-vitro binding assay for BRD3. Conditions: acetyl-histone H4 peptide.
Test [2] relates to MV-4-11 cells. Put plainly: Cell growth inhibition assay (CellTiter-Glo), MV-4-11. Type of test: cell-based, human. Conditions: MV-4-11, 4 days; for GI50: Homo sapiens, MV4-11, 96 h, half-maximal growth inhibition; for MV-4-11 TGI: total growth inhibition. Put shortly:
(§1)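 Growth of each leukemia line in its own serum-containing medium was measured by CellTiter-Glo ATP luminescence after 4 days at 37 °C with 3-fold serial dilutions starting at 10 μM (0.1% DMSO). Readings were corrected for background and day 0, scaled so that vehicle is 100% and medium-only is −100%, and 4-parameter fits gave IC50 and TGI.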

Test [3] relates to THP-1 cells. As to the kind of experiment: Cell growth inhibition assay (CellTiter-Glo), THP-1. Type of test: cell-based, human. Conditions: THP-1, 4 days; for GI50: Homo sapiens, 96 h, half-maximal growth inhibition; for THP-1 TGI: total growth inhibition. Put shortly:
as §1

Seven compounds from patent US9714249B2 (Novartis AG, priority 2013, dated 2017) can be followed below.

Sequence of BRD3 (His-Brd3(20-477)) (Q15059 20-477, species assumed): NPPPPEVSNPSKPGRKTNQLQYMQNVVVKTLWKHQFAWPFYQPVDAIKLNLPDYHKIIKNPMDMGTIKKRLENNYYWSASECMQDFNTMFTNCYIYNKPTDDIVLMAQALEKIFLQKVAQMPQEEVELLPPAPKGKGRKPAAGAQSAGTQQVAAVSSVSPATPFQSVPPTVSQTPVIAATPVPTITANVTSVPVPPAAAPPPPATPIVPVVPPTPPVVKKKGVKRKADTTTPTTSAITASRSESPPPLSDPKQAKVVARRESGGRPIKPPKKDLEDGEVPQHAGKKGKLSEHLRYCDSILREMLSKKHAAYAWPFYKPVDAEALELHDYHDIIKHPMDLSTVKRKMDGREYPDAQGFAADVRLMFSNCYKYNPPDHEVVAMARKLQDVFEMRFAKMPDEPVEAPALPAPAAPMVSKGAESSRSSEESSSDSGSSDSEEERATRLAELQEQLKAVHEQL

`COc1ncc(-n2nc(C)c3c2C(c2ccc(Cl)cc2)N(c2cc(C)c(=O)n(C)c2)C3=O)cn1` (centres unmarked) [Example 21a, 6-(4-chlorophenyl)-5-(1,5-dimethyl-6-oxo-1,6-dihydropyridin-3-yl)-1-(2-methoxypyrimidin-5-yl)-3-methyl-5,6-dihydropyrrolo[3,4-c]pyrazol-4(1H)-one] returned an IC50 in test [1] of 52 nM. Further, in test [2], the GI50 was 115 nM and the “MV-4-11 TGI” value was found to be 177 nM. In test [3], the GI50 was found to be 166 nM and the “THP-1 TGI” value was determined as 331 nM.

The compound `COc1ncc(-n2nc3c(c2C)C(=O)N(c2cc(C)c(=O)n(C)c2)C3c2ccc(Cl)cc2)cn1` (centres unmarked) [Example 21b, 6-(4-chlorophenyl)-5-(1,5-dimethyl-6-oxo-1,6-dihydropyridin-3-yl)-2-(2-methoxypyrimidin-5-yl)-3-methyl-5,6-dihydropyrrolo[3,4-c]pyrazol-4(2H)-one] displayed a 50% inhibitory concentration (IC50) in test [1] of 94 nM. In test [2], halving of growth (GI50) required 105 nM and the “MV-4-11 TGI” value is 208 nM. In test [3], the concentration for 50% growth inhibition (GI50) came out at 209 nM and the “THP-1 TGI” value was 396 nM.

With `Cc1cc(N2C(=O)c3c(C4CC4)nn(-c4ccnn4C)c3[C@H]2c2ccc(Cl)cc2)cn(C)c1=O` [Example 22, (R)-6-(4-chlorophenyl)-3-cyclopropyl-5-(1,5-dimethyl-6-oxo-1,6-dihydropyridin-3-yl)-1-(1-methyl-1H-pyrazol-5-yl)-5,6-dihydropyrrolo[3,4-c]pyrazol-4(1H)-one], the IC50 in test [1] is 89 nM. In test [2], the GI50 stood at 49.5 nM and the “MV-4-11 TGI” value turned out to be 88.65 nM. Besides, in test [3], the 50% growth inhibitory concentration (GI50) was determined as 87.4 nM and the “THP-1 TGI” value turned out to be 165 nM.

For `Cc1cc(N2C(=O)c3c(C4CC4)n[nH]c3[C@H]2c2ccc(Cl)cc2)cn(C)c1=O` [Example 24, (R)-6-(4-chlorophenyl)-3-cyclopropyl-5-(1,5-dimethyl-6-oxo-1,6-dihydropyridin-3-yl)-5,6-dihydropyrrolo[3,4-c]pyrazol-4(1H)-one], the IC50 in test [1] came to 47 nM. In addition, in test [2], halving of growth (GI50) required 21.6 nM and the “MV-4-11 TGI” value was 34.95 nM. In addition, in test [3], the GI50 stood at 29.7 nM and the “THP-1 TGI” value worked out at 62.25 nM.

Turning to `COc1ncccc1-n1nc(C)c2c1[C@@H](c1ccc(Cl)cc1)N(c1cc(C)c(=O)n(C)c1)C2=O` [Example 25, (R)-6-(4-chlorophenyl)-5-(1,5-dimethyl-6-oxo-1,6-dihydropyridin-3-yl)-1-(2-methoxypyridin-3-yl)-3-methyl-5,6-dihydropyrrolo[3,4-c]pyrazol-4(1H)-one], the concentration for half-maximal inhibition (IC50) in test [1] was found to be 64 nM. For the same compound, in test [2], the GI50 was found to be 40.7 nM and the “MV-4-11 TGI” value turned out to be 72.55 nM. Also, in test [3], the 50% growth inhibitory concentration (GI50) was 72.7 nM and the “THP-1 TGI” value came to 135.5 nM.

The compound `COc1ncccc1-n1nc2c(c1C)C(=O)N(c1cc(C)c(=O)n(C)c1)[C@@H]2c1ccc(Cl)cc1` [Example 26, (R)-6-(4-chlorophenyl)-5-(1,5-dimethyl-6-oxo-1,6-dihydropyridin-3-yl)-2-(2-methoxypyridin-3-yl)-3-methyl-5,6-dihydropyrrolo[3,4-c]pyrazol-4(2H)-one] showed an IC50 in test [1] of 52 nM. Also, in test [2], the GI50 amounted to 22.6 nM and the “MV-4-11 TGI” value was 36.75 nM. In addition, in test [3], the GI50 turned out to be 27.6 nM and the “THP-1 TGI” value was found to be 52.4 nM.

For the compound `Cc1[nH]nc2c1C(=O)N(c1cc(Cl)c(=O)n(C)c1)[C@@H]2c1ccc(Cl)cc1` [Example 28, (R)-5-(5-chloro-1-methyl-6-oxo-1,6-dihydropyridin-3-yl)-6-(4-chlorophenyl)-3-methyl-5,6-dihydropyrrolo[3,4-c]pyrazol-4(2H)-one], in test [1], the half-maximal inhibitory concentration (IC50) stood at 69 nM. Also, in test [2], it took 49.3 nM to inhibit growth by half (GI50) and the “MV-4-11 TGI” value amounted to 86.4 nM. In test [3], the GI50 is 110 nM and the “THP-1 TGI” value turned out to be 201.5 nM.
